The results in this text go back to patent US4841067A, “Novel amino acid derivatives” (Kissei Pharmaceutical Co., Ltd., priority 1985, dated 1989).

The target in one experiment is T1, human renin (Homo sapiens, UniProt P00797).
T1 sequence (P00797 67-406): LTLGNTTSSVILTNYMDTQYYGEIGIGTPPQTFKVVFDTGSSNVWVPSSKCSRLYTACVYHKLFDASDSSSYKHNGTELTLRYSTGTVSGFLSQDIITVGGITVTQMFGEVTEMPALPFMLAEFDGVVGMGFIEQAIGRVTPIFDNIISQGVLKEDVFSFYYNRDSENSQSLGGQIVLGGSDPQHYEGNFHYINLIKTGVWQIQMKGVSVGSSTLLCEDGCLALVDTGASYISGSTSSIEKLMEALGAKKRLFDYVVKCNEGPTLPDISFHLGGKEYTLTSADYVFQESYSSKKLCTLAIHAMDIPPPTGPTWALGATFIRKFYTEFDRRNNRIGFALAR
As to the kind of experiment: Human renin-sheep renin substrate reaction system in vitro (angiotensin I by radioimmunoassay). The class given is biochemical. The following applies: pH 7.4, 37° C., 15 minutes, read-out: IC50 (molar concentration which produced 50% inhibition). The protocol: Human renin-sheep renin substrate reaction system in vitro To a mixture containing 200 μl of a 125 mM pyrophosphate buffer (ph 7.4), 25 μl of a 20 mM aqueous solution of […] as an angiotensin converting enzyme inhibitor, 50 μl of semipurified sheep renin substrate (4400 ng angiotensin I/ml) 50 μl of dimethyl sulfoxide solution of a dipeptide of the present invention and 150 μl of deionized water was added 25 μl of purified human renin (20-30 ng angiotensin I/hr). The mixture was incubated for 15 minutes on a water bath at 37° C., and the reaction mixture was allowed to stand for 5 minutes on a water bath at 100° C. to stop the reaction. After cooling, 200 μl of the solution were taken up and the amount of angiotensin I produced by the addition of renin was determined by radioimmunoassay. The inhibitory effect was calculated by the following equation. [formula] As a control, the same procedure as above was carried out by using 50 μl of dimethyl sulfoxide alone in place of the 50 μl of dimethyl sulfoxide solution containing an amino acid derivative of the present invention. The molar concentration which produced 50% inhibition (IC50) was calculated from the inhibition value obtained, and the results are shown below.

The subject of the next experiment is marmoset. Briefly: Hypotensive effect in marmoset (furosemide-induced high renin state, i.v. injection). It is filed as in vivo, common marmoset. Particulars: 2.5 mg/kg i.v., conscious male marmoset, furosemide pretreated. The protocol: Hypotensive effect in marmoset
The experiment was carried out by using common marmoset as described in K. G. Hofbauer et al., Clinical and Experimental Hypertension-Theory and Practice, Vol. A5, No. 7 & 8 (1983), pages 1237-1247.
Furosemide was orally administered three times to common marmoset at 15 mg per kilogram per day every other day to create a high renin state. Blood pressure of consious marmoset was measured 2 days after the last administration of furosemide.
Measurement of blood pressure
Male common marmoset weighing 325 g was lightly anesthetized by ketamine hydrochloride (Ketalar, produced by Parke Davis, 20 mg/kg i.m.), and their carotid artery and vein exposed.. Catheters being filled with a heparin solution was subcutaneously inserted into the carotid artery and vein from the dorsum. After suturing of the opened part, the marmosets were placed on a heated mat. After complete recovery from the anesthesia, an amino acid derivative of the present invention (2.5 mg/kg) was intravenously injected through the venous catheter.
The arterial catheter was connected to a pressure transducer and blood pressure was recorded on the polygraph.

With `CC(C)C[C@H](NC(=O)[C@H](Cc1c[nH]cn1)NC(=O)C(CC(=O)NCCc1ccccc1)Cc1cccc2ccccc12)[C@@H](O)CCO` (single isomer, unassigned), the IC50 at human renin was found to be 5900 nM.

As for `CC(C)C[C@H](NC(=O)[C@H](Cc1cnc[nH]1)NC(=O)C(CC(=O)NCCc1ccccc1)Cc1cccc2ccccc12)C(O)C(=O)NCc1ccccc1` (single isomer, unassigned), the IC50 on human renin was 100 nM.

`CC(C)CCOCC(O)[C@H](CC(C)C)NC(=O)[C@H](Cc1c[nH]cn1)NC(=O)C(CC(=O)NCCc1ccccc1)Cc1cccc2ccccc12` (single isomer, unassigned) [(2RS, 3S)-3-{N-[(+)-2-(1-Naphthylmethyl)-3-(phenethylcarbamoyl)propionyl]-L-histidyl}amino-2-hydroxy-5-methylhexyl isoamyl ether]: the IC50 on human renin turned out to be 280 nM.

On to `COC(=O)C[C@H](O)[C@H](CC(C)C)NC(=O)[C@H](Cc1cnc[nH]1)NC(=O)C(CC(=O)NCCc1ccccc1)Cc1cccc2ccccc12` (single isomer, unassigned) [Methyl N-[(+)-2-(1-naphthylmethyl)-3-(phenethylcarbamoyl)propionyl]-L-histidylstatinate], for which the IC50 at human renin came out at 310 nM.

With `CNC(=O)C(O)[C@H](CC(C)C)NC(=O)[C@H](Cc1cnc[nH]1)NC(=O)C(CC(=O)NCCc1ccccc1)Cc1cccc2ccccc12` (single isomer, unassigned) [listing 1 of 2 here], the IC50 at human renin came out at 4500 nM.

Take `COCC(O)[C@H](CC(C)C)NC(=O)[C@H](Cc1cnc[nH]1)NC(=O)C(CC(=O)NCCc1ccccc1)Cc1cccc2ccccc12` (single isomer, unassigned) [(2RS, 3S)-3-{N-(+)-2-(1-Naphthylmethyl)-3-(phenethylcarbamoyl)propionyl]-L-histidyl}amino-2-hydroxy-5-methylhexyl methyl ether]: on human renin, the IC50 worked out at 790 nM.

For `CC(C)CCNC(=O)C(O)[C@H](CC(C)C)NC(=O)[C@H](Cc1cnc[nH]1)NC(=O)C(CC(=O)NCCc1ccccc1)Cc1cccc2ccccc12` (single isomer, unassigned), on human renin, the IC50 is 250 nM.

In the case of `CC(C)C[C@H](NC(=O)[C@H](Cc1c[nH]cn1)NC(=O)C(CC(=O)NCCc1ccccc1)Cc1cccc2ccccc12)C(O)C(=O)OCc1ccccc1` (single isomer, unassigned), on human renin, the IC50 came to 42 nM.

With `CC(C)CCOC(=O)C(O)[C@H](CC(C)C)NC(=O)[C@H](Cc1c[nH]cn1)NC(=O)C(CC(=O)NCCc1ccccc1)Cc1cccc2ccccc12` (single isomer, unassigned), at human renin, the IC50 came out at 61 nM.

On to `CC(C)C[C@H](NC(=O)[C@H](Cc1cnc[nH]1)NC(=O)C(CC(=O)NCCc1ccccc1)Cc1cccc2ccccc12)C(O)CNCc1ccccc1` (single isomer, unassigned) [(2RS, 3S)-N-Benzyl-3-{N-[(+)-2-(1-naphthylmethyl)-3-(phenethylcarbamoyl)propiobnyl]-L-histidyl}amino-2-hydroxyl-5-methylhexylamine], for which, at human renin, the IC50 came to 150 nM.

Take `CNC(=O)C[C@H](O)[C@H](CC(C)C)NC(=O)[C@H](Cc1cnc[nH]1)NC(=O)C(CC(=O)NCCc1ccccc1)Cc1cccc2ccccc12` (single isomer, unassigned) [N-[(+)-2-(1-Naphthylmethyl)-3-(phenethylcarbamoyl)propionyl]-L-histidylstatylmethylamide]: the IC50 at human renin was determined as 740 nM.

With `CC(C)CCNCC(O)[C@H](CC(C)C)NC(=O)[C@H](Cc1cnc[nH]1)NC(=O)C(CC(=O)NCCc1ccccc1)Cc1cccc2ccccc12` (single isomer, unassigned) [(2RS, 3S)-N-Isoamyl-3-{N-[(+)-2-(1-naphthylmethyl)-3-(phenethylcarbamoyl)propionyl]-L-histidyl}-amino-2-hydroxy-5-methylhexylamine], at human renin, the IC50 came out at 350 nM.

On to `COC(=O)C(O)[C@H](CC(C)C)NC(=O)[C@H](Cc1c[nH]cn1)NC(=O)C(CC(=O)NCCc1ccccc1)Cc1cccc2ccccc12` (mixture of isomers) [methyl (2RS, 3S)-3-{N-[(+)-2-(1-naphthylmethyl)-3-(phenethylcarbamoyl)propionyl]-L-histidyl}amino-2-hydroxy-5-methylhexanoate], for which the IC50 on human renin was determined as 49 nM. Further, the Diastolic blood pressure came out at 56 mm Hg in the experiment with marmoset (1 min after injection (control 72)); 61 mm Hg in the experiment with marmoset (3 min after injection (control 72)); 62 mm Hg in the experiment with marmoset (5 min after injection (control 72)); 70 mm Hg in the experiment with marmoset (10 min after injection (control 72)); 72 mm Hg in the experiment on marmoset (15 min after injection (control 72)). Also, the Systolic blood pressure with marmoset (1 min after injection (control 103)) worked out at 85 mm Hg; in the experiment with marmoset (3 min after injection (control 103)), 91 mm Hg; with marmoset (5 min after injection (control 103)), 92 mm Hg; in the experiment on marmoset (10 min after injection (control 103)), 102 mm Hg; in the experiment on marmoset (15 min after injection (control 103)), 103 mm Hg.

On to `CC(C)C[C@H](NC(=O)[C@H](Cc1cnc[nH]1)NC(=O)C(CC(=O)NCCc1ccccc1)Cc1cccc2ccccc12)C(O)COCc1ccccc1` (single isomer, unassigned) [(2RS, 3S)-3-{N-[(+)-2-(1-naphthylmethyl)-3-phenethylcarbamoyl)propionyl]-L-histidyl}amino-2-hydroxy-5-methylhexyl benzyl ether], for which the IC50 at human renin worked out at 470 nM.

Take `CNC(=O)C(O)[C@H](CC(C)C)NC(=O)[C@H](Cc1cnc[nH]1)NC(=O)C(CC(=O)NCCc1ccccc1)Cc1cccc2ccccc12` (mixture of isomers) [(2RS,3S)-3-{N-[(+)-2-(1-naphthylmethyl)-3-(phenethylcarbamoyl)propionyl]-L-histidyl}-amino-2-hydroxy-5-methylhexanoylmethylamide]: the IC50 on human renin was 700 nM.

Turning to `CC(C)C[C@H](NC(=O)[C@H](Cc1cnc[nH]1)NC(=O)C(CC(=O)NCCc1ccccc1)Cc1cccc2ccccc12)C(O)C(=O)N(C)C` (single isomer, unassigned), the IC50 at human renin worked out at 2800 nM.

Turning to `CC(C)C[C@H](NC(=O)[C@H](Cc1c[nH]cn1)NC(=O)C(CC(=O)NCCc1ccccc1)Cc1cccc2ccccc12)C(O)CO` (single isomer, unassigned) [(2RS, 3S)-3-{N-[(+)-2-(1-naphthylmethyl)-3-(phenethylcarbamoyl)propionyl]-L-histidyl}amino-2-hydroxy-5-methylhexanol], the IC50 on human renin came out at 590 nM.

Turning to `CNC(=O)C(O)[C@H](CC(C)C)NC(=O)[C@H](Cc1cnc[nH]1)NC(=O)C(CC(=O)NCCc1ccccc1)Cc1cccc2ccccc12` (single isomer, unassigned) [listing 2 of 2 here], on human renin, the IC50 turned out to be 390 nM.

For `COC(=O)[C@H](O)[C@H](CC(C)C)NC(=O)[C@H](Cc1cnc[nH]1)NC(=O)C(CC(=O)NCCc1ccccc1)Cc1cccc2ccccc12` (single isomer, unassigned), on human renin, the IC50 was 31 nM.

As for `CC(C)CCNC(=O)C[C@H](O)[C@H](CC(C)C)NC(=O)[C@H](Cc1cnc[nH]1)NC(=O)C(CC(=O)NCCc1ccccc1)Cc1cccc2ccccc12` (single isomer, unassigned) [N-[(+)-2-(1-Naphthylmethyl)-3-(phenethylcarbamoyl)propionyl]-L-histidylstatylisoamylamide], on human renin, the IC50 is 72 nM.

With `COC(=O)[C@@H](O)[C@H](CC(C)C)NC(=O)[C@H](Cc1cnc[nH]1)NC(=O)C(CC(=O)NCCc1ccccc1)Cc1cccc2ccccc12` (single isomer, unassigned), the IC50 at human renin is 1300 nM.
